From ChEMBL document CHEMBL4699665, “Discovery of ANT3310, a Novel Broad-Spectrum Serine β-Lactamase Inhibitor of the Diazabicyclooctane Class, Which Strongly Potentiates Meropenem Activity against Carbapenem-Resistant Enterobacterales and Acinetobacter baumannii” (J Med Chem, 2020)

Test system: Enterobacter cloacae
Test: Potentiation of meropenem-induced antibacterial activity against Enterobacter cloacae expressing TEM-1/KPC-2 assessed as meropenem MIC at 4 ug/ml by broth microdilution method (reference value: 8 ug/ml)
Format: functional
Settings: dose 4 µg/ml

Row | Compound | MIC [µg/mL]
1 | O=C1N2C[C@@H](CC[C@H]2SC(F)(F)F)N1OS(=O)(=O)[O-].[Na+] | 0.03
2 | O=C1N2C[C@@H](CC[C@H]2C(Cl)Cl)N1OS(=O)(=O)[O-].[Na+] | 0.06
3 | N#C[C@@H]1CC[C@@H]2CN1C(=O)N2OS(=O)(=O)[O-].[Na+] | 0.06
4 | O=C1N2C[C@@H](CC[C@H]2CF)N1OS(=O)(=O)[O-].[Na+] | 0.125

Test system: Enterobacter
Test: Inhibition of beta lactamase KPC in carbapenem-resistant Enterobacter assessed as meropenem minimum concentration required for antibacterial activity at 4 ug/ml by broth microdilution method (reference value: 4 ug/ml)
Settings: dose 4.0 µg/ml

Row | Compound | MIC [µg/mL]
5 | N#C[C@@H]1CC[C@@H]2CN1C(=O)N2OS(=O)(=O)[O-].[Na+] | < 0.03

Test system: Enterobacter
Test: Inhibition of beta lactamase KPC in carbapenem-resistant Enterobacter assessed as meropenem maximum concentration required for antibacterial activity at 4 ug/ml by broth microdilution method (Rvb >32 ug/ml)
Settings: dose 4.0 µg/ml

Row | Compound | Activity [µg/mL]
6 | N#C[C@@H]1CC[C@@H]2CN1C(=O)N2OS(=O)(=O)[O-].[Na+] | 16

Test system: Enterobacter
Test: Inhibition of beta lactamase KPC in carbapenem-resistant Enterobacter assessed as meropenem-induced antibacterial activity by measuring meropenem MIC90 at 4 ug/ml by broth microdilution method (Rvb >32 ug/ml)
Settings: dose 4.0 µg/ml

Row | Compound | MIC90 [µg/mL]
7 | N#C[C@@H]1CC[C@@H]2CN1C(=O)N2OS(=O)(=O)[O-].[Na+] | 1

Test system: Acinetobacter baumannii
Test: Inhibition of beta lactamase OXA in carbapenem-resistant Acinetobacter baumannii assessed as meropenem-induced antibacterial activity by measuring meropenem MIC50 at 4 ug/ml by broth microdilution method (Rvb > 32 ug/ml)
Settings: dose 4.0 µg/ml

Row | Compound | MIC50 [µg/mL]
8 | N#C[C@@H]1CC[C@@H]2CN1C(=O)N2OS(=O)(=O)[O-].[Na+] | 16

Biological target: not listed separately
Test: Inhibition of beta lactamase CTXM-15 in Enterobacter cloacae assessed as decrease in enzyme activity using nitrocefin as substrate preincubated for 10 mins followed by substrate addition measured for 10 mins by fluorescence plate reader analysis
Settings: not given

Row | Compound | IC50 [µM]
9 | O=C1N2C[C@@H](CC[C@H]2SC(F)(F)F)N1OS(=O)(=O)[O-].[Na+] | 0.01
10 | O=C1N2C[C@@H](CC[C@H]2C(Cl)Cl)N1OS(=O)(=O)[O-].[Na+] | 0.178
11 | N#C[C@@H]1CC[C@@H]2CN1C(=O)N2OS(=O)(=O)[O-].[Na+] | 0.004
12 | O=C1N2C[C@@H](CC[C@H]2CF)N1OS(=O)(=O)[O-].[Na+] | 0.119

Test system: Acinetobacter baumannii
Test: Inhibition of beta lactamase OXA in carbapenem-resistant Acinetobacter baumannii assessed as meropenem maximum concentration required for antibacterial activity at 4 ug/ml by broth microdilution method (Rvb > 32 ug/ml)
Settings: dose 4.0 µg/ml

Row | Compound | Activity [µg/mL]
13 | N#C[C@@H]1CC[C@@H]2CN1C(=O)N2OS(=O)(=O)[O-].[Na+] | > 32

Test system: Acinetobacter baumannii
Test: Inhibition of beta lactamase OXA in carbapenem-resistant Acinetobacter baumannii assessed as meropenem minimum concentration required for antibacterial activity at 4 ug/ml by broth microdilution method (reference value: 8 ug/ml)
Settings: dose 4.0 µg/ml

Row | Compound | MIC [µg/mL]
14 | N#C[C@@H]1CC[C@@H]2CN1C(=O)N2OS(=O)(=O)[O-].[Na+] | 0.25

Test system: Acinetobacter baumannii
Test: Potentiation of meropenem-induced antibacterial activity against Acinetobacter baumannii expressing OXA-23 assessed as meropenem MIC at 4 ug/ml by broth microdilution method (reference value: 32 ug/ml)
Format: functional
Settings: dose 4 µg/ml

Row | Compound | MIC [µg/mL]
15 | O=C1N2C[C@@H](CC[C@H]2SC(F)(F)F)N1OS(=O)(=O)[O-].[Na+] | 32
16 | O=C1N2C[C@@H](CC[C@H]2C(Cl)Cl)N1OS(=O)(=O)[O-].[Na+] | 32
17 | N#C[C@@H]1CC[C@@H]2CN1C(=O)N2OS(=O)(=O)[O-].[Na+] | 4
18 | O=C1N2C[C@@H](CC[C@H]2CF)N1OS(=O)(=O)[O-].[Na+] | 32

Biological target: not listed separately
Test: Inhibition of beta lactamase TEM-1 in Enterobacter cloacae assessed as decrease in enzyme activity using nitrocefin as substrate preincubated for 10 mins followed by substrate addition measured for 10 mins by fluorescence plate reader analysis
Settings: not given

Row | Compound | IC50 [µM]
19 | O=C1N2C[C@@H](CC[C@H]2SC(F)(F)F)N1OS(=O)(=O)[O-].[Na+] | 0.026
20 | O=C1N2C[C@@H](CC[C@H]2C(Cl)Cl)N1OS(=O)(=O)[O-].[Na+] | 0.403
21 | N#C[C@@H]1CC[C@@H]2CN1C(=O)N2OS(=O)(=O)[O-].[Na+] | 0.067
22 | O=C1N2C[C@@H](CC[C@H]2CF)N1OS(=O)(=O)[O-].[Na+] | 0.492

Biological target: not listed separately
Test: Inhibition of beta lactamase OXA-48 in Enterobacter cloacae assessed as decrease in enzyme activity using nitrocefin as substrate preincubated for 10 mins followed by substrate addition measured for 10 mins by fluorescence plate reader analysis
Settings: not given

Row | Compound | IC50 [µM]
23 | O=C1N2C[C@@H](CC[C@H]2SC(F)(F)F)N1OS(=O)(=O)[O-].[Na+] | 0.099
24 | O=C1N2C[C@@H](CC[C@H]2C(Cl)Cl)N1OS(=O)(=O)[O-].[Na+] | 0.178
25 | N#C[C@@H]1CC[C@@H]2CN1C(=O)N2OS(=O)(=O)[O-].[Na+] | 0.002
26 | O=C1N2C[C@@H](CC[C@H]2CF)N1OS(=O)(=O)[O-].[Na+] | 0.154

Test system: Klebsiella pneumoniae
Test: Potentiation of meropenem-induced antibacterial activity against Klebsiella pneumoniae expressing SHV-11/OXA-121 assessed as meropenem MIC at 4 ug/ml by broth microdilution method (reference value: 16 ug/ml)
Format: functional
Settings: dose 4 µg/ml

Row | Compound | MIC [µg/mL]
27 | O=C1N2C[C@@H](CC[C@H]2SC(F)(F)F)N1OS(=O)(=O)[O-].[Na+] | 8
28 | O=C1N2C[C@@H](CC[C@H]2C(Cl)Cl)N1OS(=O)(=O)[O-].[Na+] | 16
29 | N#C[C@@H]1CC[C@@H]2CN1C(=O)N2OS(=O)(=O)[O-].[Na+] | 0.25
30 | O=C1N2C[C@@H](CC[C@H]2CF)N1OS(=O)(=O)[O-].[Na+] | 1

Biological target: not listed separately
Test: Inhibition of beta lactamase KPC-2 in Enterobacter cloacae assessed as decrease in enzyme activity using nitrocefin as substrate preincubated for 10 mins followed by substrate addition measured for 10 mins by fluorescence plate reader analysis
Settings: not given

Row | Compound | IC50 [µM]
31 | O=C1N2C[C@@H](CC[C@H]2SC(F)(F)F)N1OS(=O)(=O)[O-].[Na+] | 0.002
32 | O=C1N2C[C@@H](CC[C@H]2C(Cl)Cl)N1OS(=O)(=O)[O-].[Na+] | 0.004
33 | N#C[C@@H]1CC[C@@H]2CN1C(=O)N2OS(=O)(=O)[O-].[Na+] | 0.008
34 | O=C1N2C[C@@H](CC[C@H]2CF)N1OS(=O)(=O)[O-].[Na+] | 0.051

Test system: Enterobacter
Test: Inhibition of beta lactamase OXA in carbapenem-resistant Enterobacter assessed as meropenem maximum concentration required for antibacterial activity at 4 ug/ml by broth microdilution method (Rvb > 32 ug/ml)
Settings: dose 4.0 µg/ml

Row | Compound | Activity [µg/mL]
35 | N#C[C@@H]1CC[C@@H]2CN1C(=O)N2OS(=O)(=O)[O-].[Na+] | 0.5

Test system: Enterobacter
Test: Inhibition of beta lactamase KPC in carbapenem-resistant Enterobacter assessed as meropenem-induced antibacterial activity by measuring meropenem MIC50 at 4 ug/ml by broth microdilution method (Rvb >32 ug/ml)
Settings: dose 4.0 µg/ml

Row | Compound | MIC50 [µg/mL]
36 | N#C[C@@H]1CC[C@@H]2CN1C(=O)N2OS(=O)(=O)[O-].[Na+] | 0.06

Test system: Enterobacter
Test: Inhibition of beta lactamase OXA in carbapenem-resistant Enterobacter assessed as meropenem minimum concentration required for antibacterial activity at 4 ug/ml by broth microdilution method (reference value: 2 ug/ml)
Settings: dose 4.0 µg/ml

Row | Compound | MIC [µg/mL]
37 | N#C[C@@H]1CC[C@@H]2CN1C(=O)N2OS(=O)(=O)[O-].[Na+] | < 0.03

Test system: Acinetobacter baumannii
Test: Inhibition of beta lactamase OXA in carbapenem-resistant Acinetobacter baumannii assessed as meropenem-induced antibacterial activity by measuring meropenem MIC90 at 4 ug/ml by broth microdilution method (Rvb > 32 ug/ml)
Settings: dose 4.0 µg/ml

Row | Compound | MIC90 [µg/mL]
38 | N#C[C@@H]1CC[C@@H]2CN1C(=O)N2OS(=O)(=O)[O-].[Na+] | 32

Test system: Klebsiella pneumoniae
Test: Potentiation of meropenem-induced antibacterial activity against Klebsiella pneumoniae expressing TEM-OSBL/CTX-M-14/OXA-48 assessed as meropenem MIC at 4 ug/ml by broth microdilution method (reference value: 16 ug/ml)
Format: functional
Settings: dose 4 µg/ml

Row | Compound | MIC [µg/mL]
39 | O=C1N2C[C@@H](CC[C@H]2SC(F)(F)F)N1OS(=O)(=O)[O-].[Na+] | 8
40 | O=C1N2C[C@@H](CC[C@H]2C(Cl)Cl)N1OS(=O)(=O)[O-].[Na+] | 16
41 | N#C[C@@H]1CC[C@@H]2CN1C(=O)N2OS(=O)(=O)[O-].[Na+] | 0.06
42 | O=C1N2C[C@@H](CC[C@H]2CF)N1OS(=O)(=O)[O-].[Na+] | 1

Test system: Enterobacter
Test: Inhibition of beta lactamase OXA in carbapenem-resistant Enterobacter assessed as meropenem-induced antibacterial activity by measuring meropenem MIC 90 at 4 ug/ml by broth microdilution method (Rvb >32 ug/ml)
Settings: dose 4.0 µg/ml

Row | Compound | MIC90 [µg/mL]
43 | N#C[C@@H]1CC[C@@H]2CN1C(=O)N2OS(=O)(=O)[O-].[Na+] | 0.25

Biological target: not listed separately
Test: Inhibition of bacteria beta lactamase OXA-23 assessed as decrease in enzyme activity using nitrocefin as substrate preincubated for 10 mins followed by substrate addition measured for 10 mins by fluorescence plate reader analysis
Settings: not given

Row | Compound | IC50 [µM]
44 | O=C1N2C[C@@H](CC[C@H]2SC(F)(F)F)N1OS(=O)(=O)[O-].[Na+] | 1.32
45 | O=C1N2C[C@@H](CC[C@H]2C(Cl)Cl)N1OS(=O)(=O)[O-].[Na+] | 1.68
46 | N#C[C@@H]1CC[C@@H]2CN1C(=O)N2OS(=O)(=O)[O-].[Na+] | 0.059
47 | O=C1N2C[C@@H](CC[C@H]2CF)N1OS(=O)(=O)[O-].[Na+] | > 3

Biological target: not listed separately
Test: Inhibition of beta lactamase AmpC in Enterobacter cloacae assessed as decrease in enzyme activity using nitrocefin as substrate preincubated for 10 mins followed by substrate addition measured for 10 mins by fluorescence plate reader analysis
Settings: not given

Row | Compound | IC50 [µM]
48 | O=C1N2C[C@@H](CC[C@H]2SC(F)(F)F)N1OS(=O)(=O)[O-].[Na+] | 0.002
49 | O=C1N2C[C@@H](CC[C@H]2C(Cl)Cl)N1OS(=O)(=O)[O-].[Na+] | 0.052
50 | N#C[C@@H]1CC[C@@H]2CN1C(=O)N2OS(=O)(=O)[O-].[Na+] | 0.003
51 | O=C1N2C[C@@H](CC[C@H]2CF)N1OS(=O)(=O)[O-].[Na+] | 0.304

Test system: Enterobacter
Test: Inhibition of beta lactamase OXA in carbapenem-resistant Enterobacter assessed as meropenem-induced antibacterial activity by measuring meropenem MIC50 at 4 ug/ml by broth microdilution method (reference value: 16 ug/ml)
Settings: dose 4.0 µg/ml

Row | Compound | MIC50 [µg/mL]
52 | N#C[C@@H]1CC[C@@H]2CN1C(=O)N2OS(=O)(=O)[O-].[Na+] | 0.12

Test system: Klebsiella pneumoniae
Test: Potentiation of meropenem-induced antibacterial activity against Klebsiella pneumoniae expressing TEM-1/SHV-11/KPC-3 assessed as meropenem MIC at 4 ug/ml by broth microdilution method (reference value: 128 ug/ml)
Format: functional
Settings: dose 4 µg/ml

Row | Compound | MIC [µg/mL]
53 | O=C1N2C[C@@H](CC[C@H]2SC(F)(F)F)N1OS(=O)(=O)[O-].[Na+] | 4
54 | O=C1N2C[C@@H](CC[C@H]2C(Cl)Cl)N1OS(=O)(=O)[O-].[Na+] | 2
55 | N#C[C@@H]1CC[C@@H]2CN1C(=O)N2OS(=O)(=O)[O-].[Na+] | 0.5
56 | O=C1N2C[C@@H](CC[C@H]2CF)N1OS(=O)(=O)[O-].[Na+] | 2
